Assay results: the NIST ThermoML archive (doi:10.1021/acs.jced.8b00793)

Conditions: 100 kPa, Liquid; for viscosity: Concentric cylinders viscometry; for mass density: Vibrating tube method

CCO [ethanol]
Conditions | mass density [kg/m3] | viscosity [mPa·s]
293.15 K | 790.7 | 1.23
303.15 K | 782.2 | 1.02
313.15 K | 773.4 | 0.85
323.15 K | 760.1 | 0.71
